The source of these data is patent US20060217445A1, “Natural astaxanthin extract reduces dna oxidation” (priority 2003, published 2006).

Data set [1] can be described thus: Plasma astaxanthin by reverse phase HPLC in supplemented human subjects. The data set is classed as in vivo. More on the design: Astaxanthin Levels (plasma): unit not given here. The settings on record: for Astaxanthin Levels (plasma): oral. The method, then:
(§1) Free-living healthy female Korean subjects (average age 21.5 years) were recruited at Inha University, Korea. A three-day dietary record was obtained prior to the study to provide background dietary information. Subjects had no history of diabetes, cancer or alcohol abuse, and were non-smokers. They were allowed to consume their normal diets but advised to restrain from eating astaxanthin-rich foods. Subjects were assigned to receive 0 (control), 2, or 8 mg astaxanthin (109 g astaxanthin/kg oleoresin concentrate from Haematococcus pluvialis, astaZanthin™, La Haye Laboratories Inc., Redmond, Wash.) (n=14 subjects/diet) for eight weeks in a double-blind placebo control study. The astaxanthin was administered in the form of one soft gel capsule taken every morning. Blood was again drawn on week 0, 4 and 8 to assess immune function and oxidative status.
HPLC. Astaxanthin content in plasma was analyzed by reverse phase HPLC (Alliance 2690 Waters HPLC system fitted with a photodiode array detector, Waters, Milford, Mass.) as previously described (Park et al., J Nutr. 128(10):1650-1656, 1998). Trans-β-apo-8′carotenal (Sigma Chem. Co., St. Louis, Mo.) was used as the internal standard.

The subject of another data set is human subjects. As to the kind of experiment: Delayed-type hypersensitivity (DTH) response to intracutaneous tuberculin. It is filed as in vivo. The procedure:
as §1
Delayed-type hypersensitivity. Delayed-type hypersensitivity (DTH) response to an intracutaneous injection of tuberculin (Mono-Vacc Test (O.T.), Pasteur Merieux Connaught, France) was assessed on week 8. The injection was administered by a physician and skin thickness and induration were measured at 0, 24, 48 and 72 hours after challenge. In general, DTH response was maximal at 48 to 72 h post-injection (FIG. 9). Subjects fed 2 mg astaxanthin had higher (P<0.08) DTH response than unsupplemented controls.

For data set [2], the system named is peripheral blood mononuclear cell (PBMC). As to the kind of experiment: Mitogen-induced lymphoproliferation, whole blood cultures. It is filed as in vivo, human. As to conditions: especially 8 mg; significant (P<0.05) on wk 8. The procedure:
as §1
Lymphoproliferation. The proliferation response of peripheral blood mononuclear cell (PBMC) to PHA (2 and 10 mg/L final concentration), concanavalin A (Con A; 2 and 10 mg/L), and pokeweed mitogen (PWM; 1 and 5 mg/L) was assessed using whole blood cultures as described (Chew et al., J Nutr. 130(8):1910-1913, 2000). Whole blood was cultured in order to mimic in vivo conditions. Results were calculated as stimulation index (cpm of mitogen-stimulated culture/cpm of unstimulated cultures). Astaxanthin supplementation, especially those given 8 mg astaxanthin, increased lymphocyte proliferation when stimulated by the T cell-dependent mitogens PHA (FIG. 2) and Con A (FIG. 3), and also B cell mitogen (PWM, FIG. 4). The increases were significant (P<0.05) on wk 8 for all mitogens.

Data set [3] deals with CD3 (total T), CD4 (Th), CD8 (Tc), NK, CD21 (B cells). The data set can be described thus: Leukocyte subsets by flow cytometry. It is filed as in vivo, human. The procedure: as §1
(§2) Leukocyte subset. Subpopulations of CD3 (total T), CD4 (Th), CD8 (Tc), NK (natural killer), and CD21 (B cells) were quantitated by flow cytometry as previously described (Chew et al. 2000). In addition, the distribution of the cell surface adhesion molecules ICAM-1 (CD54), LFA-1 (CD11a) and LFA-3 (CD58), also was measured by flow cytometry. The population of total T cells was higher (P<0.05) in astaxanthin-fed (both levels) subjects than unsupplemented controls on wk 4 and 8 (FIG. 6). The population of B cells also was higher (P<0.05) in subjects given 2 mg astaxanthin after 8 weeks (FIG. 7).

For data set [4], the system named is ICAM-1 (CD54), LFA-1 (CD11a) and LFA-3 (CD58). The data set can be described thus: Cell surface adhesion molecules by flow cytometry. The data set is classed as in vivo, human. As to conditions: for frequency of cells expressing LFA-1 marker: week 8 (control 31.8%). The method, then: as §1, §2
The next data set concerns K562 target cells. The data set can be described thus: Natural killer cell cytotoxic activity (PBMC effector, MTT). The data set is classed as in vivo, human. As to conditions: 8 mg daily, wk 8, effector:target ratio 10:1, P<0.05. The procedure:
as §1
Natural killer cell cytotoxic activity. Effector (PBMC) and target (K562) cells were cultured at effector:target ratios of 5:1 and 10:1 in Dulbecco's Modified Eagles Medium (Sigma, St. Louis, Mo.) containing 100 mL/L fetal bovine serum, 100 U/mL penicillin, and […] streptomycin sulfate. Killing was assessed using MTT. Percent of specific cytotoxicity calculated as follows: % Specific cytotoxicity=1−(ODeffector+target−ODeffector)/ODtarget×100. […]

In data set [5] the test system is 8-Hydroxy-2′-deoxyguanosine (8-OHdG). The data set can be described thus: Oxidative damage to DNA: plasma 8-OHdG by ELISA. The data set is classed as in vivo, human. More on the design: Average Levels of 8-OHdG (plasma): unit not given here. The settings on record: for Average Levels of 8-OHdG (plasma): oral. The procedure:
as §1
Oxidative damage to DNA. 8-Hydroxy-2′-deoxyguanosine (8-OHdG) was measured in plasma by ELISA (BIOXYTECH™ 8-OHhdG-EIA Kit, OxisResearch, Portland, Oreg.; sensitivity=0.5 μg/L).

In data set [6] the test system is 8-epi-prostaglandin F2α (8-isoprostane). The data set can be described thus: Lipid peroxidation: plasma 8-isoprostane by ELISA. The data set is classed as in vivo, human. The settings on record: 2 or 8 mg daily, 8 weeks. The method, then:
as §1
Lipid-peroxidation. Plasma concentrations of 8-epi-prostaglandin F2α (8-isoprostane) was measured by ELISA.
Background: ELISA stands for enzyme-linked immunosorbent assay.

The next data set deals with rats. As to conditions: rats fed 400 ppm for 41 days; cited from earlier work.
Data set [7] concerns UVA-induced oxidative stress. The settings on record: in vitro; cited from earlier work.
For data set [8] the following is noted: cited from earlier work.
The conditions of data set [9]: mice fed the same amount of these carotenoids; cited from earlier work.
The test system of a further data set is lipid peroxidation. As to conditions: cited from earlier work.
For data set [10], the system named is cytotoxic T lymphocyte activity and IFN-γ production. As to conditions: astaxanthin-fed mice; cited from earlier work.
Another data set deals with splenocytes. The settings on record: mice; cited from earlier work.
The subject of data set [11] is splenocytes of tumor-bearing mice. As to conditions: dietary; cited from earlier work.

“Also recorded” adds a separate entry of the source.

Take `CC1=C(/C=C/C(C)=C/C=C/C(C)=C/C=C/C=C(C)/C=C/C=C(C)/C=C/C2=C(C)C(=O)C(O)CC2(C)C)C(C)(C)CC(O)C1=O` (stereo not drawn) [astaxanthin, 3,3′-dihydroxy-beta,beta-carotene-4,4′-dione]: the “Astaxanthin Levels (plasma)” value turned out to be 0.0960 in [1] (2 mg astaxanthin daily, 4 week); 0.0921 in data set [1] (2 mg astaxanthin daily, 8 week); 0.1309 in data set [1] (8 mg astaxanthin daily, 4 week); 0.1162 in data set [1] (8 mg astaxanthin daily, 8 week). In addition, in data set [1] (week 0), the “plasma astaxanthin prior to feeding” value was “undetectable”. In addition, in data set [1] (weeks 4 and 8, dose-dependently, P<0.01), the “plasma astaxanthin, change on feeding” value was “increased”. In addition, the “DTH response vs unsupplemented controls” value is given as “higher” in the data set on human subjects (2 mg daily, week 8, P<0.08) and “did not show a similar heightened DTH response” in the data set on human subjects (8 mg daily, week 8). The “Con A-induced lymphocyte proliferation (stimulation index)” value in data set [2] is given as “increased; also recorded: stimulated”. Also, the “PHA-induced lymphocyte proliferation (stimulation index)” value in [2] is given as “increased; also recorded: stimulated”. In addition, the “PWM-induced lymphocyte proliferation (stimulation index)” value in [2] is listed as “increased; also recorded: stimulated”. Besides, the “population of B cells” value in [3] (2 mg daily, after 8 weeks, P<0.05) was “higher”; in data set [3] (8 mg daily), “did not elevate”. The “population of Th, Tc or NK cells or ratio of Th:Tc cells” value in [3] (2 or 8 mg daily) is “did not significantly influence”. Also, the “population of total T cells vs unsupplemented controls” value in [3] (both levels (2 and 8 mg), wk 4 and 8, P<0.05) is listed as “higher; also recorded: increased”. Also, the “expression of LFA-1 adhesion molecules” value in [4] (2 mg daily, P<0.05) is “increased”. Further, the figures for the “frequency of cells expressing LFA-1 marker” value in data set [4] (2 mg daily) and in [4] (8 mg daily) were 42.1% and 30.6%, respectively. Further, the “ICAM-1 or LFA-3 expression” value in [4] (2 or 8 mg daily) is “No similar dietary effect”. Besides, the “NK cell cytotoxic activity” value in the data set with K562 target cells is reported as “higher; also recorded: increased”. In addition, the “Average Levels of 8-OHdG (plasma)” value in data set [5] (2 mg astaxanthin daily, 0 week (baseline)) is listed as 23.4; in [5] (2 mg astaxanthin daily, 4 week), 13.8; in data set [5] (2 mg astaxanthin daily, 8 week), 14.4; in [5] (8 mg astaxanthin daily, 0 week (baseline)) it was 23.5; in [5] (8 mg astaxanthin daily, 4 week), 15.3; in [5] (8 mg astaxanthin daily, 8 week), 13.2. Moreover, the “further decrease of DNA damage with higher dose” value in data set [5] (8 mg vs 2 mg daily) is on record as “did not decrease further”. In addition, the “plasma 8-oxodG concentration vs unsupplemented subjects” value in data set [5] (2 or 8 mg daily, as early as wk 4, P<0.01) is reported as “dramatically lower”. Besides, in data set [5] (after 4 weeks of feeding), the “reduction in 8-OHdG (blood DNA damage)” value is over 35%. Further, the “lipid peroxidation measured in the plasma (8-isoprostane)” value in data set [6] is given as “did not significantly influence”. Besides, the “effects on body/organ weight, enzyme activities, pregnancy, or litter size” value in the data set with rats was “no harmful effects”. Moreover, the “protection against UVA-induced oxidative stress relative to lutein and β-carotene” value in data set [7] is given as “approximately 100 fold”. In [8] (oil), the solubility in oil result is on record as “extremely low”. Further, the solubility in water result in data set [8] (water) is on record as “substantially insoluble”. In addition, in data set [9], the “concentration in plasma vs β-carotene, lutein” value is reported as “much higher”. The “inhibiting lipid peroxidation vs β-carotene and vitamin E” value in the data set on lipid peroxidation is recorded as “more effective”. Moreover, the “cytotoxic T lymphocyte activity and IFN-γ production” value in data set [10] is given as “increased”. In addition, the “ex vivo antibody response of splenocytes to T-cell antigens” value in the data set with splenocytes is listed as “increased”.

`CC1=C[C@H](O)CC(C)(C)[C@H]1/C=C/C(C)=C/C=C/C(C)=C/C=C/C=C(C)/C=C/C=C(C)/C=C/C1=C(C)C[C@@H](O)CC1(C)C` [lutein]: in [11], the “IFN-γ mRNA expression” value was “increased” and the “expression of IL-10” value is on record as “decreased”.
